# Experiments:
# [1] = test system: phospho-ERK in A549 (KRAS G12S) cells; assay: Cell-based pERK (pERK:tERK) in A549 cells; conditions: for activity at 0.01 µM: Homo sapiens, A549, 2 h, read-out: A549-pERK (10 nM, 2 h); for pERK:tERK (10 nM 2 h A549): Phospho-ERK Screen in A549 (KRAS G12S), head 10 nM 2 h, title 10 μM for 2 hours
# In short: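 A549 cells in 6-well plates were treated with compound at a predetermined concentration for 2 hours at 37 °C. Lysates were then normalised by Bradford protein assay to 1 mg/mL for pERK. Phospho-ERK and total ERK were detected by Western blot with IRDye secondary antibodies and quantified by LI-COR Odyssey imaging.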
# hERG = hERG (Homo sapiens, UniProt Q12809); assay: cell-based
# Procedure: Materials and Methods: CHO cells (transformed with adenovirus 5 DNA; Stably transfected with full length hERG cDNA) were cultured in Ham's F-12 supplemented with 10% fetal bovine serum, 100 U/mL penicillin G sodium, 100 μg/mL streptomycin sulfate and 400 μg/mL Zeocin. Before testing, cells in culture dishes were rinsed with Hank's Balanced Salt Solution, detached with accutase.
# HEPES-buffered intracellular solution (Charles River proprietary) for whole cell recordings was loaded into the intracellular compartment of the SP384PE. Extracellular buffer (HB-PS) and Cell suspension (in HB-PS) were pipetted into the extracellular compartment of the SP384PE chip. After establishment of a whole-cell configuration, membrane currents were recorded using patch clamp amplifier in the SP384PE system.
# Test article (TA) concentrations (eight (8) concentrations of each test article were evaluated) were applied to naïve cells (n=4, where n=replicates/concentration). Each application consisted of addition of 40 μL of 2× concentrated test article solution to the total 80 μL of final volume of the extracellular well of the SP384PE chip. Duration of exposure to each compound concentration was five (5) minutes.
# hERG current was measured using stimulus voltage patterns with fixed amplitudes: activation pre-pulse (TP1) to +40 mV for 2 s and test pulse (TP2) to −40 mV for 2 s from a holding potential of −80 mV. hERG current was measured as the outward peak current at TP2 (tail current). The stimulation was repeated with 0.1 Hz frequency during 2 min as baseline and 5 min after TA application.
# Data acquisition and analyses were performed using the SP384PE system operation software. The decrease in current amplitude after TA application was used to calculate the percent block relative to control.
# Tonic Block effect was calculated as:
# [formula] • where ITP2, baseline and ITP2, TA were the outward peak K^+ currents elicited by the TP2 before application and 5 min after application of a test article, respectively.
# The data were corrected for run-down:
# [formula] • where % VC and % PC were the mean values of the current block with the vehicle and positive controls, respectively.
# Concentration-response data were fitted to an equation of the following form:
# [formula] • where [Test] was the concentration of test article, IC50 was the concentration of the test article producing half-maximal block, N was the Hill coefficient, % VC was the mean current block at the vehicle control and % Block was the percentage of ion channel current inhibited at each concentration of a test article. Nonlinear least squares fits were solved with the XLfit add-in for Excel (Microsoft, Redmond, WA).
# In this study, hERG Ion channel block of IC50 values were determined. […] In brief, CHO cells were cultured in Ham's F-12 supplemented with 10% fetal bovine serum, 100 U/mL penicillin G sodium, 100 μg/mL streptomycin sulfate and 400 μg/mL Zeocin. Before testing, cells in culture dishes were rinsed with Hank's Balanced Salt Solution, detached with accutase. […] Test article (TA) concentrations were applied to naïve cells (n=4, where n=replicates/concentration). Each application consisted of addition of 40 μL of 2× concentrated test article solution to the total 80 μL of final volume of the extracellular well of the SP384PE chip. Duration of exposure to each compound concentration was five (5) minutes. hERG current was measured using stimulus voltage patterns with fixed amplitudes: activation pre-pulse (TP1) to +40 mV for 2 s and test pulse (TP2) to −40 mV for 2 s from a holding potential of −80 mV. hERG current was measured as the outward peak current at TP2 (tail current). The stimulation was repeated with 0.1 Hz frequency during 2 min as baseline and 5 min after TA application. Data acquisition and analyses were performed using the SP384PE system operation software.
# PAMPA (pH 7.4) = assay type: in vitro ADME; conditions: PAMPA; pH = 7.4 (Table 14)
# [2] = Plasma stability, mouse plasma (Balb/c; Table 5 head CD-1 Mouse); assay type: in vitro ADME; conditions: 2 μM
# [3] = Plasma stability, beagle dog plasma (K2EDTA); assay type: in vitro ADME
# Procedure: (§1) Individual stock solutions of propantheline and lovastatin were prepared at 10 mM in DMSO and were further diluted to 2 mM with DMSO.
# (§2) Frozen matrices (Balb/c mouse, Wistar Han rat, Beagle dog, and human plasma containing K2EDTA as anti-coagulant) were thawed and centrifuged at 3100 rpm for 10 minutes at 4° C. to remove particulates. The lipid layer was then removed, and the supernatant was transferred to a new tube without disturbing the pellet. After the matrices were incubated at 37° C. for at least 10 minutes, the pH of each matrix was adjusted to pH 7.4, using 10% phosphoric acid or 1N sodium hydroxide as necessary. Test and control article stock solutions were spiked (2 μL) into matrix (1.998 mL) and mixed to final assay concentration of […]. Duplicate 30-μL aliquots of spiked plasma were transferred to matrix tubes in 96-well plate immediately after spiking for timepoints of 0, 30, 60, 120, 240, and 360 minutes. These tubes were then incubated at 37° C. with shaking and at each timepoint, the corresponding tubes containing samples were quenched with 180 μL of cold acetonitrile containing the internal standards. The quenched samples were vortex-mixed briefly and stored refrigerated. After the final time point (360 minutes), the plates with all quenched samples were vortex-mixed for 10 minutes and then centrifuged at 3100 rpm for 10 minutes at 4° C. to sediment the precipitated protein. The supernatant (50 μL) was transferred to a clean 96-well plate and diluted with 100 μL of water. The plates were stored refrigerated until analysis.
# (§3) Data Analysis: Peak area ratios for IS-normalized test article and control article counts were used to calculate the percent remaining relative to the time zero (T0) value. As appropriate, results were plotted and further analyzed to calculate half-life (T1/2) values.
# (§4) Mean peak area ratios were used to calculate the % remaining relative to the T0 value:
# (§5) In this study, human, cynomolgus monkey, beagle dog, wistar hannover rat, and balb/c plasma stability was determined. Table 28 describes the results of the human plasma stability at 2 μM concentration and anti-coagulant K2-EDTA from 10 to 120 min. Table 29 describes the results of the cynomolgus monkey plasma stability at 2 μM concentration and anti-coagulant K2-EDTA. Table 30 describes the results of the beagle dog plasma stability at 2 μM concentration and anti-coagulant K2-EDTA. Table 31 describes the results of the wistar hannover rat plasma stability at 2 μM concentration and anti-coagulant K2-EDTA. Table 32 describes the results of the balb/c plasma stability at 2 μM concentration and anti-coagulant K2-EDTA.
# [4] = Plasma stability, human plasma (K2EDTA); assay type: in vitro ADME
# Procedure: as §1, §2, §3, §4, §5
# CYP2C19 = CYP2C19 (Homo sapiens, UniProt P33261); assay: in vitro; conditions: pooled liver microsomes, pH 7.4, probe mephenytoin
# [5] = Plasma stability, rat plasma (Wistar Han / wistar hannover; Table 5 head SD Rat); assay type: in vitro ADME; conditions: Wistar Hannover, rat, plasma, pH 7.4
# Procedure: as §1, §2, §3, §4, §5
# [6] = Plasma stability, cynomolgus monkey plasma (K2-EDTA); assay type: in vitro ADME
# Procedure: as §1, §2, §3, §4, §5
# [7] = Plasma stability, mouse plasma (Balb/c; Table 5 head CD-1 Mouse); assay type: in vitro ADME; conditions: BALB/c, mouse, plasma, pH 7.4
# Procedure: as §1, §2, §3, §4, §5
# CYP2C8 = molecular target: T1, CYP2C8 (Homo sapiens, UniProt P10632); assay: in vitro; conditions: pooled liver microsomes, pH 7.4, probe amodiaquine
# T1 sequence (P10632 1-490): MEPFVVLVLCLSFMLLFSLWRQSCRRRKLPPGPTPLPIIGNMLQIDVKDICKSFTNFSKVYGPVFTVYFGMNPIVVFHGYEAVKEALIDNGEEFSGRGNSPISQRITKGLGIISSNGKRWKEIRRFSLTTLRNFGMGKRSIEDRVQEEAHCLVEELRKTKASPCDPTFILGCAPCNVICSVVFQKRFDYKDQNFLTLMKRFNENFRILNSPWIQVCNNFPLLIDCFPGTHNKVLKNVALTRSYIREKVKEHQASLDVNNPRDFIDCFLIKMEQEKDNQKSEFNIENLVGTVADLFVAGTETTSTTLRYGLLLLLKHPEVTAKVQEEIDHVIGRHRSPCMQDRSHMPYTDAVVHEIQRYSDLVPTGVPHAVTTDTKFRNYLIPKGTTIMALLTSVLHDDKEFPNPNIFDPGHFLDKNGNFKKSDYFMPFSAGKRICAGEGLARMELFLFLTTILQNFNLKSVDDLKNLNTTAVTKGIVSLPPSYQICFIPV
# CYP2D6 = CYP2D6 (Homo sapiens, UniProt P10635); assay: CYP450 panel inhibition in human liver microsomes, 2D6 (dextromethorphan); conditions: control dose 1 μM, substrate dextromethorphan
# in vitro = conditions: human
# [8] = Caco-2, Mean (B-A/A-B) (Efflux Ratio)
# [9] = Caco-2, Mean Papp A − B (10^−6 cm/s)
# [10] = Caco-2, Mean Papp A-B (10^-6 cm/s)
# [11] = Caco-2, Mean Papp B − A (10^−6 cm/s)
# [12] = Caco-2, Mean Papp B-A (10^-6 cm/s)
# Sequence of hERG (Q12809 whole entry): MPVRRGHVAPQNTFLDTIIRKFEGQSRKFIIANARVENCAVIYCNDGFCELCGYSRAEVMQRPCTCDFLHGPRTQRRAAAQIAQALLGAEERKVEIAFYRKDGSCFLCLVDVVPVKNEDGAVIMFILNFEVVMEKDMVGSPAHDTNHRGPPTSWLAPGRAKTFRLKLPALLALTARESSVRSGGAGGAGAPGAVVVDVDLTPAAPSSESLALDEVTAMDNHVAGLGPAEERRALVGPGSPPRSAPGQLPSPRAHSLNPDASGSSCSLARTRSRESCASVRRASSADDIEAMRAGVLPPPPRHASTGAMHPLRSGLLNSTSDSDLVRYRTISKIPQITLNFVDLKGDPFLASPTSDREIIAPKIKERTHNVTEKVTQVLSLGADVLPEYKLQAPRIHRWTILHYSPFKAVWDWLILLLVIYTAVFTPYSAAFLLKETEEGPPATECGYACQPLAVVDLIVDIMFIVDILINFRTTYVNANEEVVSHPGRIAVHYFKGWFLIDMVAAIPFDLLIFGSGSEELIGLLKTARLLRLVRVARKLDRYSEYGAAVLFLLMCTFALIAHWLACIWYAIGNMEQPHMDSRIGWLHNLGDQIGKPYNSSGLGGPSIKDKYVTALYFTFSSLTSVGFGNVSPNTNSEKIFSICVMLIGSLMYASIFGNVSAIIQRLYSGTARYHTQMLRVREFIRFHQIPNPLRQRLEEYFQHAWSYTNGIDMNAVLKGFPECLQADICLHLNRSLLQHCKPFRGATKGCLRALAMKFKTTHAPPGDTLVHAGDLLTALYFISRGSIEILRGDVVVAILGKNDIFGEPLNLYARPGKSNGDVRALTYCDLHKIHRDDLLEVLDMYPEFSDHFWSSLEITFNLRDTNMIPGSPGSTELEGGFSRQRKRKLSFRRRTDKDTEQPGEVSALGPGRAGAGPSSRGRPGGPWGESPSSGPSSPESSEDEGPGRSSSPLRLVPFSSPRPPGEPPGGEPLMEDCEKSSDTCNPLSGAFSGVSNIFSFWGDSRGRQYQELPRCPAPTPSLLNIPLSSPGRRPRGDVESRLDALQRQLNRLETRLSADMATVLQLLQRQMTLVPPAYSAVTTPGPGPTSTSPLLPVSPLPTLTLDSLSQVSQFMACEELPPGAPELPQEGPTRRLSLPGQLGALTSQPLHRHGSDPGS
# Sequence of CYP2D6 (P10635 whole entry): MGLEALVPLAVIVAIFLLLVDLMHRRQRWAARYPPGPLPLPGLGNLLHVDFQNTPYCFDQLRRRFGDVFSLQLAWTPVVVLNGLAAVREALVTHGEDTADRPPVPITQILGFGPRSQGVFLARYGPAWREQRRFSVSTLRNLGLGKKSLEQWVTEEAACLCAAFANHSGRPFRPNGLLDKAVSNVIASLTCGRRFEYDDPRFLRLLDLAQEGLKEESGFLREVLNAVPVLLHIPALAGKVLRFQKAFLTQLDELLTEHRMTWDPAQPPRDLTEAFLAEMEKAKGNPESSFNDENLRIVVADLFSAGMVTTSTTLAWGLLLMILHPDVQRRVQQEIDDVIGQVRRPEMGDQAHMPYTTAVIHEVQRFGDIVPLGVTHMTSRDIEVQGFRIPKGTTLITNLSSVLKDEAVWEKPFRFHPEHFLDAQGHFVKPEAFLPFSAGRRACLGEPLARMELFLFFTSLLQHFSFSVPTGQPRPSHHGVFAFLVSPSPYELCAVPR
# Sequence of CYP2C19 (P33261 whole entry): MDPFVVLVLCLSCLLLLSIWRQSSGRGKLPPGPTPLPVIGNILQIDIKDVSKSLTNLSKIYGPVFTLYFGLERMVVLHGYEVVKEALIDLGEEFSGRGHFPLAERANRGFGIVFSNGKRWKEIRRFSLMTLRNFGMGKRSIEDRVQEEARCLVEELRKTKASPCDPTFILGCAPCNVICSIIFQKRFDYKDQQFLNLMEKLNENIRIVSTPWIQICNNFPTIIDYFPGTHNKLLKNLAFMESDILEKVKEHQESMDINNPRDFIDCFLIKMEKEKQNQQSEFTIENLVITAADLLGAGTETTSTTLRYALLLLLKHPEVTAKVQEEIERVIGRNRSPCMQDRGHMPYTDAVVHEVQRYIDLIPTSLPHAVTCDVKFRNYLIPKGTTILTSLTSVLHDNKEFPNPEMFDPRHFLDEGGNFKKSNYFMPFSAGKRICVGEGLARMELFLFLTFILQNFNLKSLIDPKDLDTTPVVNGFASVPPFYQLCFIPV
smiles,measurement,setting,value
"CNS(=O)(=O)Nc1cccc(Cc2c(CN3CCNCC3)c3cc(F)c(OC(=O)N(C)C)cc3oc2=O)c1Cl [Compound 254, 3-(2-chloro-3-((N-methylsulfamoyl)amino)benzyl)-6-fluoro-2-oxo-4-(piperazin-1-ylmethyl)-2H-chromen-7-yl dimethylcarbamate]",activity at 0.01 µM,[1],26.8%
same,pERK:tERK (10 nM 2 h A549),[1],27
same,IC50,hERG,> 30 µM
same,"Papp at 4 h, 50 μM",PAMPA (pH 7.4),2 ×10⁻⁶ cm/s
"CCS(=O)(=O)Nc1cccc(Cc2c(CN3CCNCC3)c3cc(F)c(OC(=O)N(C)C)cc3oc2=O)c1Cl [Compound 255, 3-(2-chloro-3-(ethylsulfonamido)benzyl)-6-fluoro-2-oxo-4-(piperazin-1-ylmethyl)-2H-chromen-7-yl dimethylcarbamate]",activity at 0.01 µM,[1],37.1%
same,pERK:tERK (10 nM 2 h A549),[1],37
same,IC50,hERG,18.1 µM
same,"Papp at 4 h, 50 μM",PAMPA (pH 7.4),5 ×10⁻⁶ cm/s
"CC[C@H](C)C(=O)O[C@H]1C[C@@H](C)C=C2C=C[C@H](C)[C@H](CC[C@@H]3C[C@@H](O)CC(=O)O3)[C@H]21 [Lovastatin, reference compound]",CD-1 Mouse (% Reamining @2 hour),"[2]; plasma, 2 hour",0.6%
same,Beagle Dog (% Reamining @2 hour),"[3]; 2 μM, plasma, 2 hour",94.1%
same,Human (% Reamining @2 hour),"[4]; 2 μM, plasma, 2 hour",81.8%
"COc1ccc2[nH]c([S+]([O-])Cc3ncc(C)c(OC)c3C)nc2c1 (stereo not shown) [Omeprazole, reference compound]","inhibition at 30 min, 10 µM",CYP2C19,60.7%
"CC(C)[N+](C)(CCOC(=O)C1c2ccccc2Oc2ccccc21)C(C)C [Propantheline, reference compound]",% Remaining at T120,"[5]; 2 h, 2 μM",115.2%
same,half-life at 2 μM,[5],> 2 h
same,% Remaining at T120,"[6]; 2 μM, anti-coagulant K2-EDTA, 120 min",84.6%
same,half-life at 2 μM,"[6]; plasma (K2EDTA), pH 7.4, anti-coagulant K2-EDTA",7.5 h
same,CD-1 Mouse (% Reamining @2 hour),"[2]; CD-1, mouse, 2 h, pH 7.4",27.1%
same,Beagle Dog (% Reamining @2 hour),"[3]; beagle, dog, 2 h, 2 μM, pH 7.4",58.4%
same,% Remaining at T120,"[3]; beagle, dog, plasma, 2 h, 2 μM, pH 7.4",71.0%
same,half-life at 2 μM,"[3]; beagle, dog, plasma, pH 7.4",4.87 h
same,Human (% Reamining @2 hour),"[4]; human, 2 h, 2 μM, pH 7.4",5.7%
same,% Remaining at T120,"[4]; human, plasma, 2 h, 2 μM, pH 7.4",20.8%
same,half-life at 2 μM,"[4]; human, plasma, pH 7.4",0.943 h
same,% Remaining at T120,"[7]; 2 h, 2 μM",37.3%
same,half-life at 2 μM,[7],1.68 h
"O=c1c(O)c(-c2ccc(O)c(O)c2)oc2cc(O)cc(O)c12 [Quercetin, reference compound]","inhibition at 30 min, 10 µM",CYP2C8,88.3%
"C=C[C@H]1C[N@@]2CC[C@H]1C[C@@H]2[C@@H](O)c1ccnc2ccc(OC)cc12 [Quinidine, reference compound]","CYP-2D6 (Dextromethorphan) mean percentage CYP inhibition, control",CYP2D6,93.1%
CNC(=C[N+](=O)[O-])NCCSCc1ccc(CN(C)C)o1 [Ranitidine],"efflux ratio at 2 h, 10 μM",in vitro; [8],4.06
same,"efflux ratio at 2 h, 10 μM","in vitro; Caco-2, Mean Efflux Ratio",2.89
same,"Papp A→B at 2 h, 10 μM",in vitro; [9],0.407 ×10⁻⁶ cm/s
same,"Papp A→B at 2 h, 10 μM",in vitro; [10],0.347 ×10⁻⁶ cm/s
same,"Papp B→A at 2 h, 10 μM",in vitro; [11],1.18 ×10⁻⁶ cm/s
same,"Papp B→A at 2 h, 10 μM",in vitro; [12],1.41 ×10⁻⁶ cm/s
same,A − B Permeability Ranking,Caco-2 cells,Lower
same,A-B Permeability Ranking,Caco-2 cells,Low
CC(=O)CC(c1ccccc1)c1c(O)c2ccccc2oc1=O (stereo not shown) [Warfarin],"efflux ratio at 2 h, 10 μM",in vitro; [8],0.726
same,"efflux ratio at 2 h, 10 μM","in vitro; Caco-2, Mean Efflux Ratio",0.513
same,"Papp A→B at 2 h, 10 μM",in vitro; [9],40.5 ×10⁻⁶ cm/s
same,"Papp A→B at 2 h, 10 μM",in vitro; [10],36.6 ×10⁻⁶ cm/s
same,"Papp B→A at 2 h, 10 μM",in vitro; [11],20.8 ×10⁻⁶ cm/s
same,"Papp B→A at 2 h, 10 μM",in vitro; [12],26.6 ×10⁻⁶ cm/s
same,A − B Permeability Ranking,Caco-2 cells,Higher
same,A-B Permeability Ranking,Caco-2 cells,High

# — patent US20250179057A1, “MEK IMMUNE ONCOLOGY INHIBITORS AND THERAPEUTIC USES THEREOF” (Immuneering Corporation, priority 2022, published 2025)
